# Values of other authors as cited in patent US20250367263A9, “Therapeutic Regimens and Methods for Treatment of Cardiovascular Risk Factors using a GLP-1R and GCGR Agonist” (Spitfire Pharma LLC, priority 2022, published 2025).
structure (smiles),measurement,setting,value
CCCCCCCCCCCCCCCC(=O)N[C@@H](CCC(=O)NCCCC[C@H](NC(=O)[C@H](CC(=O)O)NC(=O)[C@H](CO)NC(=O)[C@@H](NC(=O)[C@H](Cc1ccccc1)NC(=O)[C@@H](NC(=O)CNC(=O)[C@H](CCC(N)=O)NC(=O)[C@H](CO)NC(=O)[C@@H](N)Cc1c[nH]cn1)[C@@H](C)O)[C@@H](C)O)C(=O)N[C@@H](CO)C(=O)N[C@@H](CCC(=O)O)C(=O)N[C@@H](Cc1ccc(O)cc1)C(=O)N[C@@H](CC(C)C)C(=O)N[C@@H](CC(=O)O)C(=O)N[C@@H](CO)C(=O)N[C@@H](CCC(=O)O)C(=O)N[C@@H](CCCNC(=N)N)C(=O)N[C@@H](C)C(=O)N[C@@H](CCCNC(=N)N)C(=O)N[C@@H](CC(=O)O)C(=O)N[C@@H](Cc1ccccc1)C(=O)N[C@H](C(=O)N[C@@H](C)C(=O)N[C@@H](Cc1c[nH]c2ccccc12)C(=O)N[C@@H](CC(C)C)C(=O)N[C@@H](CCC(=O)O)C(=O)N[C@@H](C)C(=O)NCC(=O)NCC(=O)O)C(C)C)C(=O)O [cotadutide],reduction in liver fat content,6 weeks,39%
same,"NASH-related alanine aminotransferase (ALT) reduction, versus liraglutide alone","human, in vivo",greater improvement
